Test results as given in ChEMBL document CHEMBL3399926, “Synthesis and structure-activity relationships of boswellic acid derivatives as potent VEGFR-2 inhibitors” (Bioorg Med Chem, 2015).

test system: HUVEC; experiment: Induction of apoptosis in HUVEC cells; format: functional, cell-based; settings: Homo sapiens

In the case of C[C@H]1[C@H](C)CC[C@]2(C)CC[C@]3(C)C(=CC(=O)[C@@H]4[C@@]5(C)Cc6cn[nH]c6[C@](C)(C(=O)O)[C@@H]5CC[C@]43C)[C@H]12, the Activity is reported as “Dose-dependent effect”.
CC(=O)O[C@@H]1CC[C@@]2(C)[C@@H](CC[C@]3(C)[C@@H]2C(=O)C=C2[C@@H]4[C@@H](C)[C@H](C)CC[C@]4(C)CC[C@]23C)[C@@]1(C)C(=O)N1CCNCC1 was tested, and the Activity was “Dose-dependent effect”.

test system: HUVEC; experiment: Antiproliferation activity against HUVEC cells after 48 hrs by CCK-8 assay; format: functional, cell-based; settings: Homo sapiens

CC(=O)O[C@@H]1CC[C@@]2(C)[C@@H](CC[C@]3(C)[C@@H]2C(=O)C=C2[C@@H]4[C@@H](C)[C@H](C)CC[C@]4(C)CC[C@]23C)[C@@]1(C)C(=O)N1CCCNCC1 and CC(=O)O[C@@H]1CC[C@@]2(C)[C@@H](CC[C@]3(C)[C@@H]2C(=O)C=C2[C@@H]4[C@@H](C)[C@H](C)CC[C@]4(C)CC[C@]23C)[C@@]1(C)C(=O)N1CCNCC1 are within 1.5-fold of each other in IC50: 2.79 µM for the first, 2.36 µM for the second.

Compared with CC(=O)O[C@@H]1CC[C@@]2(C)[C@@H](CC[C@]3(C)[C@@H]2C(=O)C=C2[C@@H]4[C@@H](C)[C@H](C)CC[C@]4(C)CC[C@]23C)[C@@]1(C)C(=O)N1CCOCC1, CC(=O)O[C@@H]1CC[C@@]2(C)[C@@H](CC[C@]3(C)[C@@H]2C(=O)C=C2[C@@H]4[C@@H](C)[C@H](C)CC[C@]4(C)CC[C@]23C)[C@@]1(C)C(=O)N1CCCCC1 is lower in IC50: > 100 µM for the first, 35.8 µM for the second.

CC(=O)N[C@H]1CC[C@@]2(C)[C@@H](CC[C@]3(C)[C@@H]2C(=O)C=C2[C@@H]4[C@@H](C)[C@H](C)CC[C@]4(C)CC[C@]23C)[C@@]1(C)C(=O)O and CC(=O)O[C@H]1CC[C@@]2(C)[C@@H](CC[C@]3(C)[C@@H]2C(=O)C=C2[C@@H]4[C@@H](C)[C@H](C)CC[C@]4(C)CC[C@]23C)[C@@]1(C)C(=O)O are within 1.5-fold of each other in IC50: 47.5 µM for the first, 35.8 µM for the second.

Compared with CCNC(=O)[C@]1(C)[C@@H]2CC[C@]3(C)[C@H](C(=O)C=C4[C@@H]5[C@@H](C)[C@H](C)CC[C@]5(C)CC[C@]43C)[C@@]2(C)CC[C@H]1OC(C)=O, CC(=O)O[C@@H]1CC[C@@]2(C)[C@@H](CC[C@]3(C)[C@@H]2C(=O)C=C2[C@@H]4[C@@H](C)[C@H](C)CC[C@]4(C)CC[C@]23C)[C@@]1(C)C(=O)NCCN is lower in IC50: > 100 µM for the first, 3.76 µM for the second. The second is the more potent here.

Going from C[C@H]1[C@H](C)CC[C@]2(C)CC[C@]3(C)C(=CC(=O)[C@@H]4[C@@]5(C)CC[C@H](O)[C@](C)(C(=O)O)[C@@H]5CC[C@]43C)[C@H]12 to C[C@H]1[C@H](C)CC[C@]2(C)CC[C@]3(C)C(=CC(=O)[C@@H]4[C@@]5(C)CC[C@H](N)[C@](C)(C(=O)O)[C@@H]5CC[C@]43C)[C@H]12, the IC50 falls from 27.2 µM to 5.32 µM (5.1-fold). The second is the more potent here.

First: CC(=O)n1ncc2c1[C@](C)(C(=O)O)[C@@H]1CC[C@]3(C)[C@H](C(=O)C=C4[C@@H]5[C@@H](C)[C@H](C)CC[C@]5(C)CC[C@]43C)[C@@]1(C)C2
Second: CCNC(=O)n1ncc2c1[C@](C)(C(=O)O)[C@@H]1CC[C@]3(C)[C@H](C(=O)C=C4[C@@H]5[C@@H](C)[C@H](C)CC[C@]5(C)CC[C@]43C)[C@@]1(C)C2
The IC50 of the first is 1.6-fold higher: 9.27 µM for the first, 5.8 µM for the second. The second is the more potent here.

COC(=O)[C@]1(C)[C@@H]2CC[C@]3(C)[C@H](C(=O)C=C4[C@@H]5[C@@H](C)[C@H](C)CC[C@]5(C)CC[C@]43C)[C@@]2(C)CC[C@H]1OC(C)=O and CC(=O)O[C@@H]1CC[C@@]2(C)[C@@H](CC[C@]3(C)[C@@H]2C(=O)C=C2[C@@H]4[C@@H](C)[C@H](C)CC[C@]4(C)CC[C@]23C)[C@@]1(C)C(N)=O are within 1.5-fold of each other in IC50: 4.6 µM for the first, 5.02 µM for the second.

First: C[C@H]1[C@H](C)CC[C@]2(C)CC[C@]3(C)C(=CC(=O)[C@@H]4[C@@]5(C)Cc6cn[nH]c6[C@](C)(C(=O)O)[C@@H]5CC[C@]43C)[C@H]12
Second: C[C@H]1[C@H](C)CC[C@]2(C)CC[C@]3(C)C(=CC(=O)[C@@H]4[C@@]5(C)Cc6cnoc6[C@](C)(C(=O)O)[C@@H]5CC[C@]43C)[C@H]12
The IC50 of the first is 4.7-fold lower: 2.13 µM for the first, 9.92 µM for the second. The first is the more potent here.

CC(=O)O[C@@H]1CC[C@@]2(C)[C@@H](CC[C@]3(C)[C@@H]2C(=O)C=C2[C@@H]4[C@@H](C)[C@H](C)CC[C@]4(C)CC[C@]23C)[C@@]1(C)C(=O)Nc1ccncc1 and CC(=O)O[C@@H]1CC[C@@]2(C)[C@@H](CC[C@]3(C)[C@@H]2C(=O)C=C2[C@@H]4[C@@H](C)[C@H](C)CC[C@]4(C)CC[C@]23C)[C@@]1(C)C(=O)NN cannot be ordered by IC50: > 100 µM for the first, > 100 µM for the second.

CO/N=C1\CC[C@@]2(C)[C@@H](CC[C@]3(C)[C@@H]2C(=O)C=C2[C@@H]4[C@@H](C)[C@H](C)CC[C@]4(C)CC[C@]23C)[C@@]1(C)C(=O)O and C[C@H]1[C@H](C)CC[C@]2(C)CC[C@]3(C)C(=CC(=O)[C@@H]4[C@@]5(C)CC/C(=N\O)[C@](C)(C(=O)O)[C@@H]5CC[C@]43C)[C@H]12 are within 1.5-fold of each other in IC50: 13.1 µM for the first, 10.8 µM for the second.

CC(=O)O[C@@H]1CC[C@@]2(C)[C@@H](CC[C@]3(C)[C@@H]2C(=O)C=C2[C@@H]4[C@@H](C)[C@H](C)CC[C@]4(C)CC[C@]23C)[C@@]1(C)C(=O)NC1CCNCC1 and CC(=O)O[C@@H]1CC[C@@]2(C)[C@@H](CC[C@]3(C)[C@@H]2C(=O)C=C2[C@@H]4[C@@H](C)[C@H](C)CC[C@]4(C)CC[C@]23C)[C@@]1(C)C(=O)O [AKBA] are within 1.5-fold of each other in IC50: 8.23 µM for the first, 7.45 µM for the second.

First: CC(=O)O[C@@H]1CC[C@]2(C)[C@H]3C(=O)C=C4[C@@H]5[C@@H](C)[C@H](C)CC[C@]5(C)CC[C@@]4(C)[C@]3(C)CC[C@H]2[C@@]1(C)C#N
Second: CC(=O)O[C@@H]1CC[C@@]2(C)[C@@H](CC[C@]3(C)[C@@H]2C(=O)C=C2[C@@H]4[C@@H](C)[C@H](C)CC[C@]4(C)CC[C@]23C)[C@@]1(C)C(=O)N(C)CCN(C)C
The IC50 of the first is higher: > 100 µM for the first, 5.05 µM for the second.

Going from CC(C)COC(=O)n1ncc2c1[C@](C)(C(=O)O)[C@@H]1CC[C@]3(C)[C@H](C(=O)C=C4[C@@H]5[C@@H](C)[C@H](C)CC[C@]5(C)CC[C@]43C)[C@@]1(C)C2 to C[C@H]1[C@H](C)CC[C@]2(C)CC[C@]3(C)C(=CC(=O)[C@@H]4[C@@]5(C)Cc6cnn(C(=O)c7ccccc7)c6[C@](C)(C(=O)O)[C@@H]5CC[C@]43C)[C@H]12, the IC50 rises from 3.12 µM to 6.31 µM (2-fold). The first is the more potent here.

Going from CC(=O)O[C@@H]1CC[C@@]2(C)[C@@H](CC[C@]3(C)[C@@H]2CC=C2[C@@H]4[C@@H](C)[C@H](C)CC[C@]4(C)CC[C@]23C)[C@@]1(C)C(=O)O to C[C@H]1[C@H](C)CC[C@]2(C)CC[C@]3(C)C(=CC(=O)[C@@H]4[C@@]5(C)CC[C@@H](OC(=O)C(F)(F)F)[C@](C)(C(=O)O)[C@@H]5CC[C@]43C)[C@H]12, the IC50 falls from > 100 µM to 5.13 µM.

C[C@H]1[C@H](C)CC[C@]2(C)CC[C@]3(C)C(=CC(=O)[C@@H]4[C@@]5(C)Cc6cnn(C(=O)Nc7ccccc7)c6[C@](C)(C(=O)O)[C@@H]5CC[C@]43C)[C@H]12 and C[C@H]1[C@H](C)CC[C@]2(C)CC[C@]3(C)C(=CC(=O)[C@@H]4[C@@]5(C)Cc6c([nH]c7ccccc67)[C@](C)(C(=O)O)[C@@H]5CC[C@]43C)[C@H]12 are within 1.5-fold of each other in IC50: 9.11 µM for the first, 8.22 µM for the second.

Compared with CC(=O)O[C@@H]1CC[C@@]2(C)[C@@H](CC[C@]3(C)[C@@H]2C(=O)C=C2[C@@H]4[C@@H](C)[C@H](C)CC[C@]4(C)CC[C@]23C)[C@@]1(C)C(=O)N1CCN(C)CC1, CCOC(=O)C(=O)O[C@@H]1CC[C@@]2(C)[C@@H](CC[C@]3(C)[C@@H]2C(=O)C=C2[C@@H]4[C@@H](C)[C@H](C)CC[C@]4(C)CC[C@]23C)[C@@]1(C)C(=O)O is higher in IC50: 70.3 µM for the first, > 100 µM for the second. The first is the more potent here.
